{"source": "patent US20230226227A1", "about": "“PROSTATE SPECIFIC MEMBRANE ANTIGEN (PSMA) LIGANDS AND USES THEREOF” (ADVANCED ACCELERATOR APPLICATIONS (ITALY) SRL, priority 2019, published 2023)", "key": {"[1]": {"test": "Effect on respiration in the unrestrained conscious rat (whole-body plethysmography)", "format": "in vivo", "conditions": "single iv 0.2, 0.6, 2 mg/kg; over 4 hours post-injection", "method": "The aim of this study was to assess the possible effects of 0.2, 0.6 and 2.0 mg/kg ^175LuPSMA-R2 on respiratory function of conscious rats via a whole-body plethysmography method after intravenous administration according to the study design detailed in Table 3.\nInspiratory time, expiratory time, peak inspiratory flow, peak expiratory flow, tidal volume, relaxation time, minute volume, respiratory rate and enhanced pause were continuously recorded from approximately 1 hour before dosing up to 4 hours after dosing. Respiratory […] parameters were reported pre-dose and at 5, 15 and 30 minutes and 1, 1.5, 2, 3 and 4 hours after dosing. Clinical signs were recorded on the day of dosing."}, "[2]": {"test": "Repeated dose (2 weeks) toxicity and toxicokinetic study in the minipig", "format": "in vivo, minipigs", "conditions": "for Half-life: mean value per sex", "method": "The tested doses are: 0.058, 0.175 and 0.583 mg/kg/day, that is about 14, 42 and 140 times the PSMA-R2 anticipated human dose.\nEach group included 3 male and 3 female minipigs. Groups 1 and 4 included 2 additional animals per gender to be sacrificed after 2 weeks of recovery.\nAll animals were dosed intravenously once a day for 14 consecutive days."}, "[3]": {"system": "Salmonella typhimurium TA1535, TA1537, TA98, TA100", "test": "Bacterial mutation assay, Salmonella typhimurium", "format": "cell-based", "method": "The test item ^175Lu-labelled PSMA-R2 solution was examined for the ability to induce gene mutations in tester strains of Salmonella typhimurium and Escherichia coli, as measured by reversion of auxotrophic strains to prototrophy. The five tester strains TA1535, TA1537, TA98, TA100 and WP2 uvrA were used. Experiments were performed both in the absence and presence of metabolic activation, using liver S9 fraction from rats pre-treated with phenobarbital and 5,6-benzoflavone.\nThe test item was used as a solution in sodium acetate buffer and all concentrations in this report are expressed in terms of active ingredient. The test item ^175Lu-labelled PSMA-R2 solution was assayed in the toxicity test at a maximum feasible concentration of 1000 µg/plate and at four lower concentrations spaced at approximately half-log intervals: 316, 100, 31.6 and 10.0 µg/plate.\nOn the basis of the results obtained in the preliminary toxicity test, in the Main Assay, using the plate incorporation method, the test item was assayed with all tester strains at the following dose levels: 1000, 500, 250, 125 and 62.5 µg/plate. […] Since a clear negative result was obtained, no further experiment was undertaken."}, "[4]": {"conditions": "daily iv 0.058, 0.175, 0.583 mg/kg/day for 14 days"}}, "note": "“And” between values parts separate entries of the source, which are not always exact repeats. Equal values may be shown once.", "data": [{"smiles": "O=C(O)CCC(NC(=O)NC(CCCCN(Cc1ccc(Br)cc1)C(=O)CCCCCNC(=O)CN1CCN(CC(=O)O)CCN(CC(=O)O)CCN(CC(=O)O)CC1)C(=O)O)C(=O)O.[175Lu]", "note": "(stereo not shown) [^175Lu-PSMA-R2]", "values": [{"measurement": "Changes in respiratory parameters", "setting": "[1]", "result": "No changes of toxicological significance were observed in respiratory parameters recorded over 4 hours post-injection."}, {"measurement": "Half-life", "setting": "[2]; Day 1, female minipigs", "result": 37.8, "unit": "min"}, {"measurement": "Half-life", "setting": "[2]; Day 1, male minipigs", "result": 42.6, "unit": "min"}, {"measurement": "Accumulation after daily administration", "setting": "[2]; Day 1 to Day 14", "result": "No relevant accumulation"}, {"measurement": "Clinical pathology, gross pathology, terminal body weight, absolute and relative organ weight", "setting": "[2]; any dose", "result": "did not reveal notable or treatment-related changes"}, {"measurement": "Histopathology", "setting": "[2]; any dose", "result": "no histopathology treatment-related modifications"}, {"measurement": "Body weights and food intake", "setting": "[2]; [4]", "result": "unaffected by the treatment"}, {"measurement": "Ophthalmoscopy and electrocardiographic examination", "setting": "[2]; [4]", "result": "No treatment-related abnormalities"}, {"measurement": "Physical examination", "setting": "[2]; [4]", "result": "did not show appreciable changes"}, {"measurement": "NOAEL", "setting": "[2]; daily iv for 2 weeks", "result": "0.583 mg/kg/day and 0.58 mg/kg/day"}, {"measurement": "Increase in systemic exposure (Cmax and AUC0-tlast) with dose", "setting": "[2]; minipig, in vivo", "result": "approximately dose-proportional"}, {"measurement": "Plasma clearance, dose dependence", "setting": "[2]; minipig, in vivo", "result": "dose-independent"}, {"measurement": "Treatment-related effects in treated groups compared to controls", "setting": "[2]; once a day for 2 weeks", "result": "No evidence of treatment-related effects"}, {"measurement": "Toxicity and revertant numbers, preliminary toxicity test", "setting": "[3]; 10.0-1000 µg/plate, absence or presence of S9", "result": "Neither toxicity, nor relevant increases in revertant numbers"}, {"measurement": "Toxicity and revertant numbers, Main Assay (plate incorporation)", "setting": "[3]; 62.5-1000 µg/plate, absence or presence of S9", "result": "Neither toxicity, nor relevant increases in revertant numbers"}, {"measurement": "Induction of reverse mutation (conclusion)", "setting": "[3]; absence or presence of S9 metabolism", "result": "does not induce reverse mutation"}]}]}
